Experimental data reported in article PMC3602205 (Chemico-biological interactions, 2013).
Substitutions are numbered along the chain they refer to.

Experiments:
[1] = target: T1, Ct-FDH (carboxy-terminal ALDH domain of 10-formyltetrahydrofolate dehydrogenase, Aldh1l1) (Rattus norvegicus, UniProt P28037); experiment: quenching of tryptophan fluorescence; type: binding
T1 sequence (P28037 400-902): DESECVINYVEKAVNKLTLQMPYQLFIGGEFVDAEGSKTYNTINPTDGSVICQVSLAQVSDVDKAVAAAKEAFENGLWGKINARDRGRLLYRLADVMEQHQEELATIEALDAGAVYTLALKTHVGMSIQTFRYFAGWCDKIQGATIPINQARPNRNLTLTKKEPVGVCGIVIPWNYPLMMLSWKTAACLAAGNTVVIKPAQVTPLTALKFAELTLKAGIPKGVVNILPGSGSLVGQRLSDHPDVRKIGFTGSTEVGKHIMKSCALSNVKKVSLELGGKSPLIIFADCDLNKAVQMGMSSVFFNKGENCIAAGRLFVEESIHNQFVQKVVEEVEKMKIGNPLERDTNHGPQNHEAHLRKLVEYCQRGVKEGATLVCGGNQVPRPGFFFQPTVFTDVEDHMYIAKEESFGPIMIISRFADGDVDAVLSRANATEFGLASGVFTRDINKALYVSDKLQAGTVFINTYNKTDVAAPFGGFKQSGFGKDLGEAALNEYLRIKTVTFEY

[2] = target: T2, Ct-FDH (carboxy-terminal ALDH domain of 10-formyltetrahydrofolate dehydrogenase, Aldh1l1) (Rattus norvegicus, UniProt P28037, C707S); experiment: quenching of tryptophan fluorescence; type: binding
T2 sequence (P28037 400-902 C707S): T1 sequence (P28037 400-902) with C308S

| Kd [1] | Kd [2] | Structure (SMILES) |
| --- | --- | --- |
| 17 ± 0.8 µM |  | NC(=S)c1ccc[n+]([C@@H]2O[C@H](COP(=O)(O)OP(=O)(O)OC[C@H]3O[C@@H](n4cnc5c(N)ncnc54)[C@H](OP(=O)(O)O)[C@@H]3O)[C@@H](O)[C@H]2O)c1 [thio-NADP^+] |
|  | 11 ± 1.5 µM | NC(=O)c1ccc[n+]([C@@H]2O[C@H](COP(=O)(O)OP(=O)(O)OC[C@H]3O[C@@H](n4cnc5c(N)ncnc54)[C@H](OP(=O)(O)O)[C@@H]3O)[C@@H](O)[C@H]2O)c1 [NADP^+] |
